We go through six compounds from patent publication US20140206682A1, “COMPOUNDS AND COMPOSITIONS AS PDGFR KINASE INHIBITORS” (NOVARTIS PHARMACEUTICALS UK LIMITED, priority 2011, published 2014).

The test deals with PDGFR. Briefly: Rat A10 cell proliferation assay. It is filed as cell-based. Conditions: Table 1; Rat A10 cells, recombinant rat PDGF-BB, CellTiter-Glo after 68 hours. In a few lines: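 Rat A10 cells in DMEM with 1% FBS and 10 ng/mL rat PDGF-BB, preincubated 4 h at 37 °C, then exposed to 3-fold serially diluted compound for 68 h. Viability/proliferation read as CellTiter-Glo luminescence.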
(Cellular ATP, detected with luciferase, serves as a proxy for viable cell number.)
In the case of `O=C(N[C@H]1CCSC[C@H]1O)c1ccc(F)c(NC(=O)c2cnc3ccccn23)c1` [F125, N-(2-fluoro-5-{[(3S,4S)-3-hydroxythian-4-yl]carbamoyl}phenyl)imidazo[1,2-a]pyridine-3-carboxamide], the IC50 was 0.098 µM.

Take `COC[C@H](NC(=O)c1ccc(F)c(NC(=O)c2cnc3cc(C)ccn23)c1)[C@@H](O)c1ccccc1` [F126, N-(2-fluoro-5-{[(1S,2S)-1-hydroxy-3-methoxy-1-phenylpropan-2-yl]carbamoyl}phenyl)-7-methylimidazo[1,2-a]pyridine-3-carboxamide]: the IC50 came to 0.008 µM.

`Cc1ccn2c(C(=O)Nc3cc(C(=O)N[C@@H](CO)[C@@H](O)c4ccccc4)ccc3F)cnc2c1` [F127, N-(5-{[(1S,2S)-1,3-dihydroxy-1-phenylpropan-2-yl]carbamoyl}-2-fluorophenyl)-7-methylimidazo[1,2-a]pyridine-3-carboxamide]: the IC50 worked out at 0.086 µM.

With `Cn1nccc1-c1ccn2c(C(=O)Nc3cc(C(=O)N[C@@H](CO)[C@@H](O)c4ccccc4)ccc3F)cnc2c1` [F128, N-(5-{[(1S,2S)-1,3-dihydroxy-1-phenylpropan-2-yl]carbamoyl}-2-fluorophenyl)-7-(1-methyl-1H-pyrazol-5-yl)imidazo[1,2-a]pyridine-3-carboxamide], the IC50 came out at 0.056 µM.

With `COC[C@H](NC(=O)c1ccc(F)c(NC(=O)c2cnc3cc(-c4ccnn4C)ccn23)c1)[C@@H](O)c1ccccc1` [F129, N-(2-fluoro-5-{[(1S,2S)-1-hydroxy-3-methoxy-1-phenylpropan-2-yl]carbamoyl}phenyl)-7-(1-methyl-1H-pyrazol-5-yl)imidazo[1,2-a]pyridine-3-carboxamide], the IC50 worked out at 0.014 µM.

For `Cn1nccc1-c1ccn2c(C(=O)Nc3cc(C(=O)N[C@H](CO)[C@H](O)c4ccccc4)ccc3F)cnc2c1` [F130, N-(5-{[(1R,2R)-1,3-dihydroxy-1-phenylpropan-2-yl]carbamoyl}-2-fluorophenyl)-7-(1-methyl-1H-pyrazol-5-yl)imidazo[1,2-a]pyridine-3-carboxamide], the concentration for half-maximal inhibition (IC50) came out at 0.104 µM.

As usually defined, the IC50 is the concentration needed to halve the response being measured.
